According to article PMC6217055 (Theranostics, 2018):

Key:
[1] = tested on: MDA-MB-468, MDA-MB-231, SK-OV-3 and OVCAR-5 cells; experiment: cell cycle assay; type: cell-based, human; details: 48 h, quarter, half of IC50 and IC50
4T1-Fluc tumour = experiment: 4T1-Fluc BALB/c homograft mouse model; type: in vivo; details: daily oral; vorinostat, abemaciclib 60 mg/kg
[2] = tested on: six solid tumour cell lines; experiment: CCK-8 cytotoxicity, summary over six cell lines; type: cell-based; details: read-out: IC50 values in these cell lines

Row | SMILES | cell cycle distribution (G1-phase arrest) [1] | tumour volume (4T1-Fluc tumour) | IC50 [2]
1 | CCN1CCN(Cc2ccc(Nc3ncc(F)c(-c4cc(F)c5nc(C)n(C(C)C)c5c4)n3)nc2)CC1 [Abemaciclib] | did not induce G1 to S phase arrest | decreased only slightly | > 1000 nM
2 | O=C(CCCCCCC(=O)Nc1ccccc1)NO [Vorinostat] | did not induce G1 to S phase arrest | barely impacted | 
